Experimental data published in ChEMBL document CHEMBL1201862, “PubChem BioAssay data set” (2004).
Several values for one entry are separate records, joined by “and”; a condition that tells them apart may be missing. Identical values can stand only once. Activity calls are given as the source filed them.

Key:
[1] = A Cell Based Secondary Assay To Explore Cytotoxicity of Compounds that Sensitize Mycobacterium Tuberculosis to Beta-Lactam Antibiotics.; assay type: functional
[2] = biological target: DNA dC->dU-editing enzyme APOBEC-3G (Homo sapiens, UniProt Q9HC16); assay: Dose Response confirmation of small molecule APOBEC3G DNA Deaminase Inhibitors via a fluorescence-based single-stranded DNA deaminase assay. [Related pubchem assays (depositor defined):AID493012, AID493028]; assay type: functional
Hexokinase = biological target: T1, Hexokinase (Trypanosoma brucei, UniProt Q38C41); assay: Confirmation assay for inhibitors of Trypanosoma brucei hexokinase 1-Analogue-first series. [Related pubchem assays (depositor defined):AID1430, AID1632, AID2516, AID2560, AID2579, AID2600, AID449725, AID492951]; assay type: functional
T1 sequence (Q38C41 whole entry): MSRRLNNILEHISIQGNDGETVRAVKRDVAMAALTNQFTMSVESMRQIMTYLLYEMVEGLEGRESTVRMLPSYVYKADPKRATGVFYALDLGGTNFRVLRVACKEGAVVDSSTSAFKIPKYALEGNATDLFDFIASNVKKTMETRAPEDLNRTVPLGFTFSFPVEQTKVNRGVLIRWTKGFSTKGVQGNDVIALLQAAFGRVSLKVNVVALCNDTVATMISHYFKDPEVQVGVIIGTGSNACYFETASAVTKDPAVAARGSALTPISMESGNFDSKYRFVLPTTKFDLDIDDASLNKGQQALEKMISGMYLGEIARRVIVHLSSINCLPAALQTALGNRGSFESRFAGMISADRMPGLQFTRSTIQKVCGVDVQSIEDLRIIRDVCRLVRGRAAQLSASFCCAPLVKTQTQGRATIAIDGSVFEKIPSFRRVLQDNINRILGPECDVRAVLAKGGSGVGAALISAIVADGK

[3] = biological target: Glucose-6-phosphate 1-dehydrogenase (Homo sapiens, UniProt P11413); assay: human G6PD enzyme inhibitors, dose response, selectivity assay for P. falciparum G6PD inhibitor project, biochemical, fluorescence (AID 504792); assay type: functional
[4] = A cytotoxicity screen of small molecule inhibitors of the PhoP region in Salmonella typhi identified in the primary screen. [Related pubchem assays: 1850, 1864, 1985 ]; assay type: functional
Aspartyl aminopeptidase = biological target: T2, Aspartyl aminopeptidase (Plasmodium falciparum 3D7, UniProt Q8I2J3)
T2 sequence (Q8I2J3 whole entry): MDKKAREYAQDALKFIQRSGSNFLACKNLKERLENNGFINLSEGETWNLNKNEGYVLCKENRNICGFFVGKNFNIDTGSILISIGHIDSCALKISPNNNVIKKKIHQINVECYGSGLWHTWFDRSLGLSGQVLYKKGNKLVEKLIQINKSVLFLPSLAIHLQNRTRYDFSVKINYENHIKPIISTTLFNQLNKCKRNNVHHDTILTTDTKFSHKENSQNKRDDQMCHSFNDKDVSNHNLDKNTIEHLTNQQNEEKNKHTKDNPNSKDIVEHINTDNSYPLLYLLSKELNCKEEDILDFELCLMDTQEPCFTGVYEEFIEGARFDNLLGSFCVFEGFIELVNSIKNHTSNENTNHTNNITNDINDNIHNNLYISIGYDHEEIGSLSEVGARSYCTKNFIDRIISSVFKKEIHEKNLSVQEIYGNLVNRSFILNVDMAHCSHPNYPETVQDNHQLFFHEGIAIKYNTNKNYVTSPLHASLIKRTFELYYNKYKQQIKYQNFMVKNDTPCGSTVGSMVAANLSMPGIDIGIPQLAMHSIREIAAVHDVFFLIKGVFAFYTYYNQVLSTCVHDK

Procathepsin L = Procathepsin L (Homo sapiens, UniProt P07711)
Large T antigen = Large T antigen (Simian virus 40, UniProt P03070); assay type: functional, Betapolyomavirus macacae;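 also: Confirmatory-stage PubChem screen for compounds that inhibit SV40 T antigen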
[5] = biological target: Induced myeloid leukemia cell differentiation protein Mcl-1 (Homo sapiens, UniProt Q07820); assay type: functional
[6] = Luminescence Cell-Based Dose Confirmation HTS to Identify Inhibitors of Polyadenylation.; assay type: functional
[7] = biological target: FAD-linked sulfhydryl oxidase ALR (Homo sapiens, UniProt P55789); assay: inhibitors of human ALR sulfhydryl oxidase, dose response, biochemical, H2O2 detection, luminescence, cherry-pick (AID 493248)
[8] = system: Streptococcus sp. 'group A'; assay: growth inhibition of control SK(-) GAS strain, dose response, counter-screen for streptokinase expression inhibitor project, luminescence, kanamycin, BacTiterGlo, confirmation (AID 1900); assay type: functional, organism-based
Streptokinase A = biological target: T3, Streptokinase A (Streptococcus pyogenes serotype M1, UniProt P10520); assay: S. pyogenes streptokinase expression inhibitors, potency, dose response, plasminogen activation absorbance, OD405 (AID 1914); assay type: functional, Streptococcus pyogenes M1 GAS;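 also: secreted streptokinase activity via plasminogen activation per viability signal from cell pellet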
T3 sequence (P10520 whole entry): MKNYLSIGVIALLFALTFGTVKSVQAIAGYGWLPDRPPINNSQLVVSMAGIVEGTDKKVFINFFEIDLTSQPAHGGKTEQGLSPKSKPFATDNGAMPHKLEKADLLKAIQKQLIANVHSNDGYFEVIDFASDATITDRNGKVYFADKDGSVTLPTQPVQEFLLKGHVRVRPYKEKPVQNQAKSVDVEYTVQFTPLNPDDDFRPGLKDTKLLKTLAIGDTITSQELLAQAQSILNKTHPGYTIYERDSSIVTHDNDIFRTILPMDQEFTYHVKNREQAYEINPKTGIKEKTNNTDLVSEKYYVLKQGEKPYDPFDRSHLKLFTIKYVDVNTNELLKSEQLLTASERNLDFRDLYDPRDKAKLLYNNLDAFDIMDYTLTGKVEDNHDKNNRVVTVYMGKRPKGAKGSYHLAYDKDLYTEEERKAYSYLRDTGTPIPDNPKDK

[9] = inhibitors of intracellular T. cruzi replication, confirmation, NIH3T3 host cells, beta-gal luminescence (AID 2044); assay type: functional, cell-based;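 also: intracellular parasites grown in NIH/3T3 mouse fibroblasts as host cells; luminescent beta-galactosidase reporter signal from transgenic T. cruzi replicating inside host cells; inhibitors lower the luminescence signal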
[10] = cytotoxicity toward NIH3T3 fibroblasts, dose response, counter-screen, cell-based, ATP luminescence, mouse fibroblasts (AID 2010); assay type: functional;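 also: cells exposed to compound for about 90 hours before reading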
Streptococcus = assay: Group A Streptococcus viability loss, dose response, counter-screen for streptokinase expression inhibitor project, luminescence, BacTiterGlo (AID 1915); assay type: functional, organism-based;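 also: potency for reduction of bacterial viability or growth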
[11] = THP-1 cell cytotoxicity, dose response, cytotoxicity control for non-replicating M. tuberculosis project (AID 489025); assay type: functional
[12] = HepG2 cell cytotoxicity, dose response, cytotoxicity control for non-replicating M. tuberculosis project (AID 489018); assay type: functional; details: Mycobacterium tuberculosis
[13] = Vero E6 cell cytotoxicity, dose response, cytotoxicity control for non-replicating M. tuberculosis project, secondary assay (AID 492998); assay type: functional, VeroE6; details: Vero C1008
cells = assay type: functional
INS1 = assay: beta cell apoptosis inhibitors, cytokine rescue, dose response, luminescence, retest (AID 449756); assay type: functional, cell-based; details: Rattus norvegicus, INS1;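 also: cell death triggered by IL-1 beta plus TNF-alpha plus IFN-gamma mixture; protective hits raise ATP signal compared with cytokine alone wells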

Chain of DNA dC->dU-editing enzyme APOBEC-3G (Q9HC16 whole entry): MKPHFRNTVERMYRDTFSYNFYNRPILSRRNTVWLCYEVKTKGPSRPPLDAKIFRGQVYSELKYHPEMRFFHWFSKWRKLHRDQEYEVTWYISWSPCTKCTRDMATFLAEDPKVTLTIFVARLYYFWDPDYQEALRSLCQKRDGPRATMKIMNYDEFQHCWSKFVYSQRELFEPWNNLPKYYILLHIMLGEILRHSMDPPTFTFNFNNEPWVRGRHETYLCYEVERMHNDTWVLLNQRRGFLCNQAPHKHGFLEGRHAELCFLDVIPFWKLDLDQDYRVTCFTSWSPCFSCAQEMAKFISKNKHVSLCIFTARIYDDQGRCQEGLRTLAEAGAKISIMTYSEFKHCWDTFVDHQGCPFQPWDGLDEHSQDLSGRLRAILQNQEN
Chain of Large T antigen (P03070 whole entry): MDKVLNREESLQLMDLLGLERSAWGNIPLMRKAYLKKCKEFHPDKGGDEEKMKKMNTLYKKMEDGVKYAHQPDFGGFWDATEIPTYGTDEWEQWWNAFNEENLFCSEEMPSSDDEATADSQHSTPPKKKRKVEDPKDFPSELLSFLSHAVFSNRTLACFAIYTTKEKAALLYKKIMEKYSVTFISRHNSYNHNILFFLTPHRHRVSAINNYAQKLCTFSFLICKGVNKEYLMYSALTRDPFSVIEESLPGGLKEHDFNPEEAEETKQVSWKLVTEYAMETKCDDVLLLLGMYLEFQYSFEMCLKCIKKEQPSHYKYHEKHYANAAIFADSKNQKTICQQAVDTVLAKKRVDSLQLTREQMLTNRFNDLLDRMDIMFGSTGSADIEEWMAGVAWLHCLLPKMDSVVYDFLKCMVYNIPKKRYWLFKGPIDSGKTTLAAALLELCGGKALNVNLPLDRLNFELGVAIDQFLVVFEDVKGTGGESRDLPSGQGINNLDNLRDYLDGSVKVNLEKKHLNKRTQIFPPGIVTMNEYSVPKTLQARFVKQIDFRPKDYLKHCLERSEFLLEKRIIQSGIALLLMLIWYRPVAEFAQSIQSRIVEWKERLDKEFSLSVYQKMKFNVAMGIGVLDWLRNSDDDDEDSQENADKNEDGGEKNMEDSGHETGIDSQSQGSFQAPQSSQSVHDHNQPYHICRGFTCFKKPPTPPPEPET
Chain of Glucose-6-phosphate 1-dehydrogenase (P11413 whole entry): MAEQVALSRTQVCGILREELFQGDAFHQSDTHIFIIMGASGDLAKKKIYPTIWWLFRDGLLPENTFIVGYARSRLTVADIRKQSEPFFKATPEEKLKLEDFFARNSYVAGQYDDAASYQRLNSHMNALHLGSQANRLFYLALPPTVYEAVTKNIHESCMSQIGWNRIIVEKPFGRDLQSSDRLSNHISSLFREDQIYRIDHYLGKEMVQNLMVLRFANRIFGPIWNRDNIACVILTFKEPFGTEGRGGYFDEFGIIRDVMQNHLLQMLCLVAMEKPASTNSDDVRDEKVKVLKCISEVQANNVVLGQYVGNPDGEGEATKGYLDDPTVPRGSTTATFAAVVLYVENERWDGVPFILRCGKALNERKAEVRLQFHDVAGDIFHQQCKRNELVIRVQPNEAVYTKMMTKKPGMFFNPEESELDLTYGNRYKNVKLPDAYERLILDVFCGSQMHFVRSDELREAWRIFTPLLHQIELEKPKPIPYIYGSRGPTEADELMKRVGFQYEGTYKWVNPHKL
Chain of FAD-linked sulfhydryl oxidase ALR (P55789 whole entry): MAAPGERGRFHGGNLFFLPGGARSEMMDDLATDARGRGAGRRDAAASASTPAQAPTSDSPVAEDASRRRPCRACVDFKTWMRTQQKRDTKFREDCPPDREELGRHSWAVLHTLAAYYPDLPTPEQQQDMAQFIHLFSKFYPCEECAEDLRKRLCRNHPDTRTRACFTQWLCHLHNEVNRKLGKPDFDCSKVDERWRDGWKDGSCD
Chain of Procathepsin L (P07711 whole entry): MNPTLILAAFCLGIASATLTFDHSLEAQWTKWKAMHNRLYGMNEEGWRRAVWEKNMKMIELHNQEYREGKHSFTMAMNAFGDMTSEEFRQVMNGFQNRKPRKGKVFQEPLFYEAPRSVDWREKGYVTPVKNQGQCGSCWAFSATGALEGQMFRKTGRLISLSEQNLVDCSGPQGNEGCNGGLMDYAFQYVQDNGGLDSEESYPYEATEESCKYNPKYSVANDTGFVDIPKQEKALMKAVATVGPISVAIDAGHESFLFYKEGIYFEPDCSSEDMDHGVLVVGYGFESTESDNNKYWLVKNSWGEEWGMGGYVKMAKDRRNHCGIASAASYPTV
Chain of Induced myeloid leukemia cell differentiation protein Mcl-1 (Q07820 whole entry): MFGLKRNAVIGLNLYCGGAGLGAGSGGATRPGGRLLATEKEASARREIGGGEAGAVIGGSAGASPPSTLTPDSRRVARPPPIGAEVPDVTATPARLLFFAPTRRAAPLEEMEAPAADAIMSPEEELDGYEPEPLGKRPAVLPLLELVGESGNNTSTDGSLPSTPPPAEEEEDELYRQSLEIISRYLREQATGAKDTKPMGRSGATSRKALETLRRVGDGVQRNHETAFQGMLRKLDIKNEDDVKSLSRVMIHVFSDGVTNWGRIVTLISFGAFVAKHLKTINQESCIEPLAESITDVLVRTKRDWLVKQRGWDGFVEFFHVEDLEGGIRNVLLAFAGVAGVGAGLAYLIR

**Q.** For `COc1ccc([N+](=O)[O-])cc1C1NN=C(c2ccccc2O)S1` (centres undefined), which CC50 [1] is on record?
**A.** Its CC50 is > 40 µM (active).

**Q.** With `S=C(c1ccc(-c2ccccc2Cl)o1)N1CCOCC1` as the compound, how does the IC50 [2] read?
**A.** Its IC50 is 44.6 µM (active).

**Q.** What does the source list for `COc1ccc(C(=O)Nc2cc(Cl)ccc2C(=O)O)cc1`?
**A.** IC50 (Hexokinase): 11.2 µM (active) and 8.23 µM (active); IC50 [3]: > 80 µM (inactive)

**Q.** What does the source list for `O=[N+]([O-])c1cc([N+](=O)[O-])c2cccnc2c1Oc1ccccc1O`?
**A.** EC50 [4]: > 50 µM (active); IC50 (Aspartyl aminopeptidase): 3.27 µM (active); IC50 (Procathepsin L): > 59.6 µM (not active); IC50 (Large T antigen): 7.81 µM (active); IC50 [5]: 2.82 µM (active)

**Q.** Which EC50 [6] does the source give for `O=C(NNC(=S)NC1CC2C=CC1C2)c1cccnc1` (centres undefined) here?
**A.** The EC50 was > 120 µM (not active).

**Q.** Which results are given for `C=CCn1c(S)nnc1-c1cccc([N+](=O)[O-])c1`?
**A.** IC50 [2]: 8.72 µM (active); AC50 [7]: 9.06 µM (active)

**Q.** With `O=C1CC(c2ccc(Cl)cc2)N2CCNC2=C1C(=O)Nc1ccccc1` (centres undefined) as the compound, how does the EC50 [4] read?
**A.** The EC50 was > 50 µM (active).

**Q.** With `CCN1CCN(C(=O)c2cc3cc(Cl)ccc3[nH]2)CC1` as the compound, how does the EC50 [4] read?
**A.** Its EC50 is > 50 µM (active).

**Q.** For `COCCCN=C(S)NN=C(S)Nc1ccccc1`, which IC50 [2] is on record?
**A.** The IC50 was 16.4 µM (active).

**Q.** Which EC50 [6] does the source give for `CC(NC(=O)c1ccc(Br)cc1)c1ccccc1` (centres undefined) here?
**A.** Its EC50 is > 120 µM (not active).

**Q.** Which EC50 [6] does the source give for `O=C(COC(=O)Cc1ccc(S(=O)(=O)N2CCOCC2)s1)Nc1ccc2c(c1)OCO2` here?
**A.** Its EC50 is > 120 µM (not active).

**Q.** Which CC50 [1] does the source give for `Cc1ccc(OCC(=O)Nc2ccc3c4c(cccc24)CC3)c(C)c1` here?
**A.** Its CC50 is > 40 µM (active).

**Q.** For `O=C(Nc1cc(Cl)ccc1C(=O)O)c1ccc2c(c1)CCC2`, which IC50 (Hexokinase) is on record?
**A.** The IC50 was 4.83 µM (active).

**Q.** For `CC(C)(C)c1cc(C(=O)N/N=C/c2ccc([N+](=O)[O-])s2)[nH]n1`, which EC50 [8] is on record?
**A.** The EC50 was 12.3 µM (active).

**Q.** What about the EC50 (Streptokinase A) of the same compound?
**A.** Its EC50 is > 150 µM (not active).

**Q.** And the EC50 [9]?
**A.** The EC50 was 150 nM (active).

**Q.** And the EC50 [10]?
**A.** Its EC50 is > 60 µM (not active).

**Q.** And the EC50 (Streptococcus)?
**A.** The EC50 was 15.8 µM (active).

**Q.** What about the CC50 [11] of the same compound?
**A.** The CC50 was 18.9 µM (active).

**Q.** What about the CC50 [12] of the same compound?
**A.** Its CC50 is > 20 µM (active).

**Q.** What about the CC50 [13] of the same compound?
**A.** The CC50 was 12 µM (active).

**Q.** And the IC50 (cells)?
**A.** The IC50 was 5.22 µM (active).

**Q.** And the AC50 (INS1)?
**A.** The AC50 was 6.87 µM (active).
